Laboratory results: patent publication US9688684B2, “Substituted tetrazolo[1,5-a]pyrazines as ROR-gamma inhibitors” (Merck Patent GmbH, priority 2013, dated 2017)
pIC50: −log10 of the molar value.

Legend:
[1] = biological target: RORγ Ligand binding domain (RORγ-LBD, aa 238-497, NP_001001523) (Homo sapiens (Human), UniProt P51449); assay: ROR γ GAI4 Reporter Gene Assay (Mammalian one-hybrid, M1H) in 293T cells; assay type: cell-based
Description: ROR γ GAI4 Reporter Gene Assay
A Mammalian one-hybrid system is used to perform a cell-based functional transactivation assay for detecting RORγ activity modulators.
The Mammalian-1-Hybrid is derived from the Mammalian-2-Hybrid setup. Whereas in the latter, the binding partners are defined in their role as interaction, transactivation and DNA-binding components, the Mammalian-1-Hybrid makes use of the fact that all mammalian cell types express a set of Nuclear Receptors and their associated cofactors. […] A Gal4 minimal promoter driven luciferase construct (pFR-Luc from Stratagene, containing a synthetic promoter with five tandem repeats of the yeast GAL4 binding sites controlling expression of the Photinus pyralis luciferase gene) is used as reporter. The Gal4-DBD-NR-LBD fusion protein by itself cannot initiate transcription and is dependent on the presence of cofactors present in the cellular system used.
In order to rule out cytotoxic and unspecific transcriptional compound effects a transfection with a firefly luciferase driven by the constitutive CMV promoter is performed in parallel.
After transfection 18 μl complete MEM medium containing 3% charcoal-dextran treated FBS is added as well as 4 μl test compounds (DMSO stocks prediluted in OptiMem (Invitrogen)) followed by incubation for 16-24 h at 37° C., 5% CO2 and 90% rH.
Firefly luciferase activity is measured using the Promega ONE-Glo™ Luciferase Assay System.

[2] = biological target: human RORγ ligand binding domain (GST-hRORγ-LBD) (Homo sapiens (Human), UniProt P51449); assay: TR-FRET assay (biochemical cofactor interaction assay, GST-hRORγ-LBD / TRAP220 peptide)
Description: RORγ is an orphan member of the nuclear receptor (NR) family displaying constitutive activity. The activity of nuclear receptors can be modulated by ligand-induced cofactor protein interactions. For example, agonist binding leads to recruitment of coactivator protein, and antagonist binding either blocks coactivator interaction or facilitates the recruitment of corepressors. […] The conformational change induced by ligand binding influences interactions with LXXLL motif peptides.
RORγ (t) is a thymus-specific isoform of RORγ which is widely expressed. It shares the same ligand binding domain (LBD) sequence with RORγ. Thus, a screen using the LBD will yield antagonists targeting both RORγ and RORγt.
In order to identify compounds which block activity of the human nuclear receptor Retinoid-related Orphan Receptor gamma (RORγ) a biochemical cofactor interaction assay based on the TR-FRET principle is performed. […] The ligand-binding domain (LBD) of RORγ is expressed as fusion protein with GST in […] cells using the vector pDEST15. Cells are lysed by lysozyme-treatment and sonication, and the fusion proteins purified over glutathione sepharose (Pharmacia) according to the manufacturers instructions. The strong constitutive interaction is disrupted upon binding of functional antagonists. The strength of the interaction is monitored by TR-FRET between streptavidine APC interacting with the biotinylated peptide and Europium-labelled Anti-GST.

Chain of RORγ Ligand binding domain (RORγ-LBD, aa 238-497, NP_001001523) (P51449 259-518): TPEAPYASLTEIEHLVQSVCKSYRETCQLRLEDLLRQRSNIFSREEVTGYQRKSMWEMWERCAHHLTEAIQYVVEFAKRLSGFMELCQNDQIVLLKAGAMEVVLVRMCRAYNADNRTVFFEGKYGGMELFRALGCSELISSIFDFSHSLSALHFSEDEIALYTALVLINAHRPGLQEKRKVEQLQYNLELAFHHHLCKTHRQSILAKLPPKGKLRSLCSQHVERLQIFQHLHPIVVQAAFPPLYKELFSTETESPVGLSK
Chain of human RORγ ligand binding domain (GST-hRORγ-LBD) (P51449 269-508): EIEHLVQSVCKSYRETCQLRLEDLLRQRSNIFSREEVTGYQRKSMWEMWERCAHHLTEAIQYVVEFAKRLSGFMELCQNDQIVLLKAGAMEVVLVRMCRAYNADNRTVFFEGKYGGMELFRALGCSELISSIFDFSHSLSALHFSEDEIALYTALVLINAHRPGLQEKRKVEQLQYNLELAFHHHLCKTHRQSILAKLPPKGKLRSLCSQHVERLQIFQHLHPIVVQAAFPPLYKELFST

Structure (SMILES)	pIC50 [1]	pIC50 [2]
Fc1ccc(C2c3nnnn3CCN2Cc2cccc(Br)c2)cc1 (single isomer, unassigned) [Compound 96-a, 7-(3-Bromo-benzyl)-8-(4-fluoro-phenyl)-5,6,7,8-tetrahydro-tetrazolo[1,5-a]pyrazine]	5.00 to 6.00	6.00 to 8.00
Fc1cccc(CN2CCn3nnnc3C2c2cccc(F)c2)c1 (stereo not drawn) [Compound 38, 7-(3-Fluoro-benzyl)-8-(3-fluoro-phenyl)-5,6,7,8-tetrahydro-tetrazolo[1,5-a]pyrazine]	5.00 to 6.00	5.00 to 6.00
CC(C)c1nn(-c2ccccc2)cc1CN1CCn2nnnc2C1c1cccs1 (stereo not drawn) [Compound 48, 7-(3-Isopropyl-1-phenyl-1H-pyrazol-4-ylmethyl)-8-thiophen-2-yl-5,6,7,8-tetrahydro-tetrazolo[1,5-a]pyrazine]	4.40 to 5.00	6.00 to 8.00
COc1ccc(OC)c(CN2CCn3nnnc3C2c2cn(-c3ccccc3)nc2C(C)C)c1 (stereo not drawn) [Compound 54, 7-(2,5-Dimethoxy-benzyl)-8-(3-isopropyl-1-phenyl-1H-pyrazol-4-yl)-5,6,7,8-tetrahydro-tetrazolo[1,5-a]pyrazine]	4.40 to 5.00	4.40 to 5.00
CC(C)c1nn(-c2ccccc2)cc1C1c2nnnn2CCN1Cc1ccc2c(c1)OCO2 (stereo not drawn) [Compound 58, 7-Benzo[1,3]dioxol-5-ylmethyl-8-(3-isopropyl-1-phenyl-1H-pyrazol-4-yl)-5,6,7,8-tetrahydro-tetrazolo[1,5-a]pyrazine]	5.00 to 6.00	4.40 to 5.00
CC(C)c1nn(-c2ccccc2)cc1C1c2nnnn2CCN1Cc1cccc(F)c1F (stereo not drawn) [Compound 63, 7-(2,3-Difluoro-benzyl)-8-(3-isopropyl-1-phenyl-1H-pyrazol-4-yl)-5,6,7,8-tetrahydro-tetrazolo[1,5-a]pyrazine]	6.00 to 8.00	4.40 to 5.00
Brc1cccc(CN2CCn3nnnc3C2C2CCCCC2)c1 (stereo not drawn) [Compound 65, 7-(3-Bromo-benzyl)-8-cyclohexyl-5,6,7,8-tetrahydro-tetrazolo[1,5-a]pyrazine]	4.40 to 5.00	4.40 to 5.00
COc1ccc(OC)c(CN2CCn3nnnc3C2c2cccc(F)c2F)c1 (stereo not drawn) [Compound 71, 8-(2,3-Difluoro-phenyl)-7-(2,5-dimethoxy-benzyl)-5,6,7,8-tetrahydro-tetrazolo[1,5-a]pyrazine]	4.40 to 5.00	4.40 to 5.00
Cc1cccc(CN2CCn3nnnc3C2c2ccc3c(c2)OCCO3)c1 (stereo not drawn) [Compound 95, 8-(2,3-Dihydro-benzo[1,4]dioxin-6-yl)-7-(3-methyl-benzyl)-5,6,7,8-tetrahydro-tetrazolo[1,5-a]pyrazine]	5.00 to 6.00	6.00 to 8.00
Cc1cccc(CN2CCn3nnnc3C2c2ccc(OC(C)C)cc2)c1 (stereo not drawn) [Compound 99, 8-(4-Isopropoxy-phenyl)-7-(3-methyl-benzyl)-5,6,7,8-tetrahydro-tetrazolo[1,5-a]pyrazine]	5.00 to 6.00	6.00 to 8.00
Cc1cccc(C2c3nnnn3CCN2Cc2ccccc2)c1 (stereo not drawn) [Compound 100, 7-Benzyl-8-m-tolyl-5,6,7,8-tetrahydro-tetrazolo[1,5-a]pyrazine]	4.40 to 5.00	6.00 to 8.00
Fc1cc(F)cc(C2c3nnnn3CCN2Cc2ccccc2)c1 (stereo not drawn) [Compound 101, 7-Benzyl-8-(3,5-difluoro-phenyl)-5,6,7,8-tetrahydro-tetrazolo[1,5-a]pyrazine]	4.40 to 5.00	6.00 to 8.00
Fc1ccc(C2c3nnnn3CCN2Cc2ccccc2)cc1 (stereo not drawn) [Compound 102, 7-Benzyl-8-(4-fluoro-phenyl)-5,6,7,8-tetrahydro-tetrazolo[1,5-a]pyrazine]	4.40 to 5.00	6.00 to 8.00
Clc1ccc(C2c3nnnn3CCN2Cc2cccs2)cc1 (stereo not drawn) [Compound 106, 8-(4-Chloro-phenyl)-7-thiophen-2-ylmethyl-5,6,7,8-tetrahydro-tetrazolo[1,5-a]pyrazine]	4.40 to 5.00	6.00 to 8.00
Fc1cc(F)cc(C2c3nnnn3CCN2Cc2cccc(Br)c2)c1 (stereo not drawn) [Compound 107, 7-(3-Bromo-benzyl)-8-(3,5-difluoro-phenyl)-5,6,7,8-tetrahydro-tetrazolo[1,5-a]pyrazine]	4.40 to 5.00	6.00 to 8.00
CC(C)c1nn(-c2ccccc2)cc1C1c2nnnn2CCN1C1CCCCC1 (stereo not drawn) [Compound 114, 7-Cyclohexyl-8-(3-isopropyl-1-phenyl-1H-pyrazol-4-yl)-5,6,7,8-tetrahydro-tetrazolo[1,5-a]pyrazine]	4.40 to 5.00	5.00 to 6.00
Cc1cccc(CN2CCn3nnnc3C2c2cccc(F)c2)c1 (stereo not drawn) [Compound 116, 8-(3-Fluoro-phenyl)-7-(3-methyl-benzyl)-5,6,7,8-tetrahydro-tetrazolo[1,5-a]pyrazine]	5.00 to 6.00	5.00 to 6.00
Fc1cccc(C2c3nnnn3CCN2Cc2cccs2)c1 (stereo not drawn) [Compound 117, 8-(3-Fluoro-phenyl)-7-thiophen-2-ylmethyl-5,6,7,8-tetrahydro-tetrazolo[1,5-a]pyrazine]	4.40 to 5.00	5.00 to 6.00
Fc1ccccc1C1c2nnnn2CCN1Cc1cccc(Br)c1 (stereo not drawn) [Compound 119, 7-(3-Bromo-benzyl)-8-(2-fluoro-phenyl)-5,6,7,8-tetrahydro-tetrazolo[1,5-a]pyrazine]	5.00 to 6.00	5.00 to 6.00
Fc1ccc(C2c3nnnn3CCN2Cc2cccs2)cc1 (stereo not drawn) [Compound 125, 8-(4-Fluoro-phenyl)-7-thiophen-2-ylmethyl-5,6,7,8-tetrahydro-tetrazolo[1,5-a]pyrazine]	4.40 to 5.00	5.00 to 6.00
COc1ccc(OC)c(C2c3nnnn3CCN2Cc2ccc(F)cc2)c1 (stereo not drawn) [Compound 128, 8-(2,5-Dimethoxy-phenyl)-7-(4-fluoro-benzyl)-5,6,7,8-tetrahydro-tetrazolo[1,5-a]pyrazine]	4.40 to 5.00	5.00 to 6.00
CC(C)Oc1ccc(C2c3nnnn3CCN2Cc2ccc3c(c2)OCO3)cc1 (stereo not drawn) [Compound 131, 7-Benzo[1,3]dioxol-5-ylmethyl-8-(4-isopropoxy-phenyl)-5,6,7,8-tetrahydro-tetrazolo[1,5-a]pyrazine]	4.40 to 5.00	5.00 to 6.00
Fc1ccc(CN2CCn3nnnc3C2c2ccc3c(c2)OCCO3)cc1 (stereo not drawn) [Compound 133, 8-(2,3-Dihydro-benzo[1,4]dioxin-6-yl)-7-(4-fluoro-benzyl)-5,6,7,8-tetrahydro-tetrazolo[1,5-a]pyrazine]	4.40 to 5.00	5.00 to 6.00
CCOc1ccc(C2c3nnnn3CCN2Cc2ccc(F)cc2)cc1 (stereo not drawn) [Compound 134, 8-(4-Ethoxy-phenyl)-7-(4-fluoro-benzyl)-5,6,7,8-tetrahydro-tetrazolo[1,5-a]pyrazine]	4.40 to 5.00	5.00 to 6.00
Cc1cccc(CN2CCn3nnnc3C2c2ccc(F)cc2F)c1 (stereo not drawn) [Compound 136, 8-(2,4-Difluoro-phenyl)-7-(3-methyl-benzyl)-5,6,7,8-tetrahydro-tetrazolo[1,5-a]pyrazine]	4.40 to 5.00	5.00 to 6.00
Fc1ccccc1C1c2nnnn2CCN1Cc1cccs1 (stereo not drawn) [Compound 137, 8-(2-Fluoro-phenyl)-7-thiophen-2-ylmethyl-5,6,7,8-tetrahydro-tetrazolo[1,5-a]pyrazine]	4.40 to 5.00	5.00 to 6.00
Cc1ccc(CN2CCn3nnnc3C2c2ccc(OC(C)C)cc2)o1 (stereo not drawn) [Compound 142, 8-(4-Isopropoxy-phenyl)-7-(5-methyl-furan-2-ylmethyl)-5,6,7,8-tetrahydro-tetrazolo[1,5-a]pyrazine]	4.40 to 5.00	4.40 to 5.00
COc1ccc(C2c3nnnn3CCN2Cc2ccc(F)cc2)cc1 (stereo not drawn) [Compound 146, 7-(4-Fluoro-benzyl)-8-(4-methoxy-phenyl)-5,6,7,8-tetrahydro-tetrazolo[1,5-a]pyrazine]	5.00 to 6.00	4.40 to 5.00
CC(C)c1nn(-c2ccccc2)cc1C1c2nnnn2CCN1Cc1cnn2ccccc12 (stereo not drawn) [Compound 154, 8-(3-Isopropyl-1-phenyl-1H-pyrazol-4-yl)-7-pyrazolo[1,5-a]pyridin-3-ylmethyl-5,6,7,8-tetrahydro-tetrazolo[1,5-a]pyrazine]	5.00 to 6.00	4.40 to 5.00
Cc1c(CN2CCn3nnnc3C2c2cn(-c3ccccc3)nc2C(C)C)cnn1C (stereo not drawn) [Compound 156, 7-(1,5-Dimethyl-1H-pyrazol-4-ylmethyl)-8-(3-isopropyl-1-phenyl-1H-pyrazol-4-yl)-5,6,7,8-tetrahydro-tetrazolo[1,5-a]pyrazine]	4.40 to 5.00	4.40 to 5.00
